Assay [1] concerns Rattus norvegicus. The assay can be described thus: Serum creatinine concentration measured after intraperitoneal administration of 1 mg/kg of compound to rats(vehicle 4.74+/-0.31). The class given is functional.
Assay [2] has as its system Rattus norvegicus. Put plainly: Serum creatinine concentration measured after intraperitoneal administration of 1 mg/kg of compound to rats(vehicle 4.82+/-0.24). Type of assay: functional.
In assay [3] the test system is Rattus norvegicus. The assay can be described thus: Effect on urinary excretion potassium and sodium after oral administration of 0.4 mg/kg to rats(potassium and sodium excretion in control rat is 0.180+/-0.017). The class given is functional, Urine.
The subject of assay [4] is Rattus norvegicus. The assay can be described thus: Effect on urinary excretion potassium and sodium after oral administration of 1.6 mg/kg to rats(potassium and sodium excretion in control rat is 0.174+/-0.013). Type of assay: functional, Urine.
The test system of assay [5] is Rattus norvegicus. The assay can be described thus: Urea nitrogen concentration measured after intraperitoneal administration of 1 mg/kg of compound to rats(vehicle 138.8+/-7.8). The class given is functional.
Assay [6] has as its system Rattus norvegicus. The assay can be described thus: Percent inhibition of serum creatinine by the compound given as ratio of Cr value in treated to vehicle treated ones after intraperitoneal administration of 1 mg/kg of compound to rats(vehicle 4.74+/-0.31). The class given is functional. The settings on record: ip.
Assay [7] deals with Rattus norvegicus. The assay can be described thus: Ratio of urinary excretion value (urinary volume) in treated rats to that in control rats, at a peroral dose of 0.4 mg/Kg. Type of assay: functional, Urine.
For assay [8], the system named is Rattus norvegicus. Put plainly: Ratio of urinary excretion value (urinary volume) in treated rats to that in control rats, at a peroral dose of 1.6 mg/Kg. Type of assay: functional, Urine.
For assay [9], the system named is Rattus norvegicus. Put plainly: Ratio of sodium ion/potassium ion concentration in treated rats to that in control rats, at a peroral dose of 0.4 mg/Kg. Type of assay: functional.
Assay [10] concerns Rattus norvegicus. Put plainly: Ratio of sodium ion/potassium ion concentration in treated rats to that in control rats, at a peroral dose of 1.6 mg/Kg. The class given is functional.
Assay [11] has as its system Rattus norvegicus. The assay can be described thus: Ratio of urinary excretion value (Na+ concentration) in treated rats to that in control rats, at a peroral dose of 0.4 mg/Kg. Type of assay: functional, Urine.
In assay [12] the test system is Rattus norvegicus. The assay can be described thus: Ratio of urinary excretion value (Na+ concentration) in treated rats to that in control rats, at a peroral dose of 1.6 mg/Kg. Type of assay: functional, Urine.
The test system of assay [13] is Rattus norvegicus. Put plainly: Oral diuretic activity was measured after oral administration of 0.4 mg/kg to rats(control volume is 1.15+/-0.17). Type of assay: functional, Urine.
The subject of assay [14] is Rattus norvegicus. The assay can be described thus: Oral diuretic activity was measured after oral administration of 1.6 mg/kg to rats(control volume is 0.86+/-0.09). The class given is functional, Urine.
Assay [15] concerns Rattus norvegicus. Put plainly: Percent inhibition of serum creatinine by the compound given as ratio of Cr value in treated to vehicle treated ones after intraperitoneal administration of 1 mg/kg of compound to rats(vehicle 4.82+/-0.24). Type of assay: functional. The settings on record: ip.
Assay [16] relates to Rattus norvegicus. The assay can be described thus: Percent inhibition of Urea nitrogen by the compound given as ratio of UN value in treated to vehicle treated ones after intraperitoneal administration of 1 mg/kg of compound to rats(vehicle 138.8+/-7.8). Particulars: ip. Type of assay: functional.
Assay [17] deals with Rattus norvegicus. The assay can be described thus: Percent inhibition of Urea nitrogen by the compound given as ratio of UN value in treated to vehicle treated ones after intraperitoneal administration of 1 mg/kg of compound to rats(vehicle 156.2+/-6.1). The settings on record: ip. Type of assay: functional.
The subject of assay [18] is Rattus norvegicus. Put plainly: Urea nitrogen concentration measured after intraperitoneal administration of 1 mg/kg of compound to rats(vehicle 156.2+/-6.1). Type of assay: functional.
A further assay deals with T1, Adenosine receptor A1 (Cavia porcellus, UniProt P47745).
T1 sequence (P47745 whole entry): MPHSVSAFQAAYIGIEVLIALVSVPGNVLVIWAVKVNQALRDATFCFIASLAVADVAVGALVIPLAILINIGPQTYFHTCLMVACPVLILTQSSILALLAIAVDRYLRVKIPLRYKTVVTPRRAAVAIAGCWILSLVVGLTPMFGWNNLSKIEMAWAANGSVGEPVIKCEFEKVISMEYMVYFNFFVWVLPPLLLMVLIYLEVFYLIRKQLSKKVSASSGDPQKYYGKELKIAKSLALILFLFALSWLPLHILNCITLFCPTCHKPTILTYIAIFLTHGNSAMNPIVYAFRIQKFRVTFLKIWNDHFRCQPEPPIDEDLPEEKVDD

The next assay addresses Adenosine A2 receptor (Rattus norvegicus, UniProt P29276+P30543).

Structures are written as SMILES. pKi: −log10 of the molar value.

Description for Adenosine receptor A1: Binding affinity against adenosine A1 receptor in guinea pig forebrain membranes using N6-[3H]cyclohexyladenosine as radioligand

As usually defined, the inhibition in vivo is the drop in the measured response relative to a control, in per cent. What is called pKi is the negative decadic logarithm of the Ki, by convention in mol/L. A low value points to a high Ki. The Ki is a dissociation constant, usually derived from enzyme kinetics or from competition with a known ligand. In the case of `CCCCn1c(=O)c2nc(C3CCCC3)[nH]c2n(CCCC)c1=O`, the results for the Cr with Rattus norvegicus [1] and with Rattus norvegicus [2] were 2.74 mg/dL and 4.03 mg/dL, respectively. Moreover, the figures for the Na with Rattus norvegicus [3] and with Rattus norvegicus [4] were 0.309 m equiv 6hr-1 100g-1 and 0.299 m equiv 6hr-1 100g-1, respectively. The UN in the assay with Rattus norvegicus [5] was 75 mg/dL; in the assay on Rattus norvegicus [18], 153.6 mg/dL. In addition, the inhibition in vivo at 1 mg/kg in the assay with Rattus norvegicus [6] amounted to 42%; in the assay with Rattus norvegicus [15], 16%; with Rattus norvegicus [16], 56%; in the assay on Rattus norvegicus [17], 2%. Further, the T/C worked out at 1.26 in the assay on Rattus norvegicus [7], 1.86 with Rattus norvegicus [8], 1.61 with Rattus norvegicus [11] and 1.72 in the assay with Rattus norvegicus [12]. For the same compound, the “Na+/K+” value in the assay on Rattus norvegicus [9] was 1.23; in the assay with Rattus norvegicus [10] it was 1.32. For the same compound, the results for the Urine volume with Rattus norvegicus [13] and in the assay with Rattus norvegicus [14] were 1.45 ml 6hr-1 100g-1 and 1.6 ml 6hr-1 100g-1, respectively. For the same compound, the pKi on Adenosine receptor A1 was 8.38. Further, the Ki at Adenosine A2 receptor was 170 nM.

The values above are taken from ChEMBL document CHEMBL1125524, “Adenosine A1 antagonists. 2. Structure-activity relationships on diuretic activities and protective effects against acute renal failure” (J Med Chem, 1992).
